Test results published in ChEMBL document CHEMBL1145086, “Selectivity fields: comparative molecular field analysis (CoMFA) of the glycine/NMDA and AMPA receptors” (J Med Chem, 2003).
pKi: −log10 of the molar value. Where “and” joins values, the source holds several entries; their conditions need not be identical. Equal entries are not always repeated.

Key:
[1] = target: Glutamate receptor ionotropic, NMDA 1 (Rattus norvegicus, UniProt P35439); assay: Binding selectivity towards N-methyl-D-aspartate glutamate receptor 1 was determined by using [3H]- glycine/NMDA
[2] = target: Glutamate receptor ionotropic, AMPA (Rattus norvegicus, UniProt P19490+P19491+P19492+P19493); assay: Binding selectivity towards Ionotropic glutamate receptor AMPA was determined by using [3H]- AMPA; type: protein-complex assay

pKi [1]	pKi [2]	SMILES
4.97	5.09	CCOC(=O)c1cc2n(n1)C(C(=O)O)Nc1cc(Cl)c([N+](=O)[O-])cc1-2 (stereo not given)
6.80	5.62	O=C(O)c1cc2n(n1)C(C(=O)O)Nc1cc(Cl)c(Cl)cc1-2 (stereo not given)
4.47	6.85	O=C(O)c1nc2c(=O)[nH]c3cc(Cl)c(-n4ccnc4)cc3n2n1
6.07 and 5.28	6.07	O=C(O)c1nc2c(=O)[nH]c3cc(Cl)c(-n4cccn4)cc3n2n1
4.24	5.85	CCOC(=O)c1cc2n(n1)C(C(=O)O)Nc1cc(Cl)c(-n3ccc[n+]3C=O)cc1-2 (stereo not given)
5.44	–	Nc1cc2c(cc1Cl)nc(O)c1nc(C(=O)O)nn12
5.85	4.91	O=C(O)c1cc2n(n1)C(C(=O)O)Nc1ccccc1-2 (stereo not given)
4.48	4.38	CCOC(=O)c1cc2n(n1)C(C(=O)O)Nc1ccccc1-2 (stereo not given)
6.32	5.64	O=C(O)c1cc2n(n1)C(C(=O)O)Nc1cc(Cl)ccc1-2 (stereo not given)
4.58	4.14	CCOC(=O)c1cc2n(n1)C(C(=O)O)Nc1cc(Cl)ccc1-2 (stereo not given)

The next lines start with the compound.

SMILES	pKi [1]	pKi [2]
CCOC(=O)c1nc2c(=O)[nH]c3cc(Cl)c(N)cc3n2n1	5.32	–
CCOC(=O)c1nc2c(O)nc3ccc(Cl)c(Cl)c3n2n1	5.32	5.31
CCOC(=O)c1nc2c(=O)[nH]c3cc(Cl)c(-n4ccc[n+]4C=O)cc3n2n1	4.72	5.72
O=C[n+]1cccn1-c1cc2c(cc1Cl)NC(C(=O)O)n1nc(C(=O)O)cc1-2 (stereo not given)	5.09	6.57
O=C(O)c1cc2n(n1)C(C(=O)O)Nc1cc(Cl)c(-n3ccnc3)cc1-2 (stereo not given)	5.08	6.85
CCOC(=O)c1nc2c(O)nc3cc(Cl)c([N+](=O)[O-])cc3n2n1	4.99	–
CCOC(=O)c1nc2c(O)nc3cc(Cl)c(-n4cccn4)cc3n2n1	4.64	4.74
O=C[n+]1cccn1-c1cc2c(cc1Cl)[nH]c(=O)c1nc(C(=O)O)nn12	4.55	6.28
O=C(O)c1cc2n(n1)C(C(=O)O)Nc1cc(Cl)c([N+](=O)[O-])cc1-2 (stereo not given)	5.96	6.13
